# In patent US20010025105A1, “Certain substituted 1-aryl-3-piperazine-1'-yl propanones” (Molecular Geriatarics Corporation, priority 1997, published 2001):
# Counter-ions that a name gives are not always drawn.
# Test system: TG3 immunoreactivity in OKA treated MSN1a cells
# Test: MSN1a cell culture model, ELISA with TG3 antibody, okadaic acid treated cells
# Format: cell-based, human
# Details: 1 μM OKA, 2 hrs at 37° C., read-out: IC50 for inhibition of TG3 immunoreactivity in OKA treated MSN1a cells
# Protocol: This assay can thus be used to determine whether a drug is capable of preventing or intervening in AD by attenuating the production of abnormally phosphorylated paired helical filament epitopes associated with AD. To determine whether a drug is capable of preventing or intervening in AD activity, the MSN1a cells containing tau and associated proteins are treated with OKA capable of greatly increasing immunoreactivity of the MSN1a cells with AD specific monoclonal antibodies. Then, either prior to or concomitantly with OKA treatment, a compound of the present invention is added to the culture. If the compound prevents the induction of the AD epitopes in the MSN1a cells treated with OKA, then it is said to have anti-AD activity. If the AD-specific antibodies are highly reactive with the neuroblastoma cells following OKA treatment in the presence of compound, then the compound is said to be ineffectual against AD.
# The MSN1a human neuroblastoma line was subcloned from a population of MSN cells obtained from the laboratory of Dr. Peter Davies (Albert Einstein College of Medicine, New York, N.Y.). Cells were grown and maintained in flasks in RPMI 1640 medium, supplemented with 15% fetal calf serum, 100 U/ml penicillin, 100 U/ml Streptomycin, 0.5 ug/ml fungizone under 7.5% CO2 at 37° C.
# Stock solutions of drugs were prepared by dissolving the anhydrous powders to final concentrations of either 10 or 20 mM in 50% aqueous or 100% dimethyl sulfoxide (DMSO), respectively. Working solutions of drugs were prepared by dilution of the stock solutions with Kreb's Ringer in Hepes buffer (KRH) (128 mM NaCl, 5 mM KCl, 2.5 mM CaCl2 1.2 mM MgSO4, 1 mM Na2HPO4, 10 mM dextrose, 20 mM Hepes, pH 7.4). OKA is maintained as a 1 mM stock solution in DMSO prior to dilution to 4 μM in KRH.
# MSN cells grown in 225 cm^2 flasks are removed from the incubator, their medium decanted and replaced with 50 ml pre-warmed KRH. The cells are harvested by scraping prior to sedimentation at 1000 rpm for 5 min. The supernatants are discarded and the cell pellets are resuspended, the cells counted and diluted to a density of 2×10^4 cells/[…]. The cells are then plated in a 96 well plate at 50 μl/well and 25 μl of 4 μM OKA and 25 μl of drug are then added to the appropriate wells; the entire 96 well plate is then incubated for 2 hrs at 37° C. Depending on the dilution of drug added, this yields individual wells containing 1 μM OKA, 0-64 μM drug and 2×10^4 cells in 0.26% DMSO in KRH. The incubation is terminated by the addition of 20 μl of 6X extraction buffer and immediate freezing at −80° C. for at least one hr. The 6X extraction buffer contains: 25 mM Tris-HCl, pH 7.6, 150 mM NaCl, 5 mM EDTA, 24 mM β-glycerol phosphate, 10 μg/ml APMSF (4-amidinophenylmethane-sulfonyl flouride), and 2.5 μg/ml each of leupeptin, aprotinin, and pepstatin. The plates are thawed in a 37° C. water bath and 20 μl of cell lysate is added to a replica well in an ELISA plate that already contains 80 μl of coating buffer (15 mM Na2CO3 and 35 mM NaHCO3, pH 9.6). The plates are allowed to coat overnight at 4° C. The plates are washed four times with deionized water and then blocked for 30 min at 37° C. with 200 μl/well pre-warmed 1% bovine serum albumin in 10 mM Tris-HCl, pH 7.4, 150 mM NaCl, 3 mM NaN3 (BSA-TBS). After the blocking solution is removed, 100 μl/well of an appropriate dilution of pre-warmed primary antibody (eg., TG3 or PHF-1) in BSA-TBS is added and incubated at 37° C. for 30 min. Incubation is terninated by washing four times in deionized water at which time 100 μl of an appropriate dilution of pre-warmed secondary antibody (conjugated to alkaline phosphatase) in BSA-TBS is added to each well in the ELISA plate. Incubation is performed for 30 min at 37° C. followed by washing 4 times with deionized water. […] of prewarmed chromogenic substrate (1 mg/mnl p-nitrophenyl phosphate in 10% diethanolamine, 3 mM NaN3, 0.5 mM MgCl2, pH 9.8) is added and the plate incubated for 30 min at 37° C. […]
row,Compound,IC50 [µM]
1,"O=C(CCN1CCN(Cc2ccccc2)CC1)c1ccccc1F [Example 13, 1-(o-Fluorophenyl)-3-(4′-benzyl-1′-piperazinyl)-1-propanone dihydrochloride]",11
2,"CS(=O)(=O)Nc1ccc(C(=O)CCN2CCN(Cc3cc(F)ccc3F)CC2)cc1 [Example 36, 1-p-Methanesulfonamidophenyl)-3-(2″,5″-difluorobenzyl-1′-piperazinyl)-1-propanone dihydrochloride]",25
3,1-(-Methylthiophenyl)-3-(4′-benzyl-1′-piperazinyl)-1-propanonedihydrochloride [Example 14],5.8
4,"1-(1-Nitrophenyl)-3-[4′-(2″,3″-difluorobenzoyl)-1′-piperazinyl]-1-propanone dihydrochloride [Example 63]",7.3
5,"O=C(CCN1CCN(Cc2ccccc2)CC1)c1cccc([N+](=O)[O-])c1 [Example 11, 1-(m-Nitrophenyl)-3-(4′-benzyl-1′-piperazinyl)-1-propanone dihydrochloride]",4.2
6,"O=C(CCN1CCN(Cc2ccccc2F)CC1)c1ccc(I)cc1 [Example 29, 1-(p-Iodophenyl)-3-[4′-(o-fluorobenzyl)-1′-piperazinyl]-1-propanone dihydrochloride]",8.7
7,"O=C(CCN1CCN(Cc2ccccc2)CC1)c1ccc(Br)s1 [Example 57, 1-(5″-Bromo-2″-thieny)-3-(4′-benzy-1′-piperazinyl)-1-propanone dihydrochloride]",6.8
8,"Cl.Cl.O=C(CCN1CCN(Cc2ccccc2)CC1)c1ccc([N+](=O)[O-])cc1 [Example 5, 1-p-Nitrophenyl)-3-(4′-benzyl-1′-piperaziny)-1-propanone dihydrochloride]",5
9,"O=C(CCN1CCN(Cc2ccccc2F)CC1)c1ccc([N+](=O)[O-])cc1 [Example 32, 1-(p-Nitrophenyl)-3-[4′-(o-fluorobenzyl)-1′-piperazinyl]-1-propanone dihydrochloride]",6.2
10,"O=C(CCN1CCN(Cc2ccc(F)cc2)CC1)c1ccccc1F [Example 44, 1-(o-Fluorophenyl)-3-[4′-(p-fluorobenzyl)-1′-piperazinyl]-1-propanone dihydrochloride]",7.5
11,"O=C(CCN1CCN(Cc2cccc(F)c2)CC1)c1ccc([N+](=O)[O-])cc1 [Example 42, 1-(p-Nitrophenyl)-3-[4′-(m-fluorobenzyl)-1′-piperazinyl]-1-propanonedihydrochloride]",5.7

# Same assay, conditions: Homo sapiens, 1 μM OKA, 2 hrs at 37° C., read-out: IC50 for inhibition of TG3 immunoreactivity in OKA treated MSN1a cells
row,Compound,IC50 [µM]
1,"O=C(CCN1CCC(C(=O)c2ccc(F)cc2)CC1)c1csc([N+](=O)[O-])c1 [Example 98, 1-(2″-Nitro-4″-thienyl)-3-(4′-p-fluorobenzoyl-1′-piperidinyl)-1-propanone hydrochloride]",34
2,"O=C(CCN1CCN(Cc2ccccc2)CC1)c1ccc(Sc2ccccc2)cc1 [Example 69, 1-p-Phenylthiophenyl-3-(4′-benzyl-1′-piperazinyl)-3-propanone dihydrochlonde]",15
3,"O=C(CCN1CCN(Cc2ccccc2)CC1)c1cccn1S(=O)(=O)c1ccccc1 [Example 91, 1-(N-Phenylsulfonylpyrrol-2-yl)-3-(4′-benzyl-1′-piperazinyl)-1-propanone dihydrochloride]",9.5
4,"Cc1ccc(C(=O)CCN2CCN(Cc3ccccc3)CC2)o1 [Example 67, 1-(5″-Methyl-2″-furanyl)-3-(4′-benzyl-1′-piperazinyl)-1-propanone hydrochloride]",20
5,"O=C(CCN1CCN(Cc2ccccc2)CC1)c1ccc2c(c1)OCCO2 [Example 19, 1-(2″,3″-Dihydro-1″,4″-benzodioxan-6″-yl)-3-(4′-benzyl-1′-piperazinyl)-1-propanone dihydrochloride]",15.6
6,"CS(=O)(=O)Nc1ccc(C(=O)CCN2CCN(Cc3ccccc3)CC2)cc1 [Example 26, 1-[-p-(Methanesulfonamido)phenyl]-3-(4′-benzyl-1′-piperazinyl)-1-propanone dihydrochloride]",14.7
